Source: patent publication US11866457B2, “Clearing agent” (SAVID THERAPEUTICS INC., priority 2016, dated 2024)
pKd: −log10 of the molar value.

Assays:
[1] = test system: [^125I]ST03-Cupid; assay: In vivo test of clearing agent: change in blood radioactivity concentration of [^125I]ST03-Cupid in mice; conditions: mouse blood
Experimental: In order to examine the efficacy of Compound 14 (Zephyr1), ^125I-labeled ST03-Cupid ([^125I]ST03-Cupid) was administered to male mice via single intravenous administration, and the blood was then collected over time, so that a change in the blood radioactivity concentration caused by administration of Compound 14 was measured. Specifically, four experimental groups were prepared. In a first group, Compound 14 was administered to the mice via single intravenous administration, 6 hours after administration of [^125I]ST03-Cupid. A second group was defined as a control group for the first group, and a normal saline was administered to the mice, instead of Compound 14. In a third group, Compound 14 was administered to the mice via single intravenous administration, 24 hours after administration of [^125I]ST03-Cupid. A fourth group was defined as a control group for the third group, and a normal saline was administered to the mice, instead of Compound 14.
Specifically, with regard to administration of [^125I]ST03-Cupid to the mice, 100 μL of [^125I]ST03-Cupid was administered in a concentration of 50 kBq/100 μL to the mice via single intravenous administration ([…]/50 kBq/100 μL injection). Thereafter, 6 hours or 24 hours after administration of [^125I]ST03-Cupid, Compound 14 was administered to the mice in an amount of 2 times the number of moles of the administered ST03-Cupid ([…]/100 μL injection), or 100 μL of a normal saline was administered to the mice. It is to be noted that the experiments were carried out using the mice groups (n=4 to 6 in each group).
The blood was collected from the orbital vein of the mice over time. When Compound 14 was administered to the mice 6 hours after administration of [^125I]ST03-Cupid, blood collection was carried out with the following time intervals: first blood collection—10 minutes after administration of [^125I]ST03-Cupid, second blood collection—6 hours after administration of [^125]ST03-Cupid, third blood collection—10 minutes after administration of Saline or Compound 14, fourth blood collection—1 hour after administration of Saline or Compound 14, fifth blood collection—3 hours after administration of Saline or Compound 14, sixth blood collection—18 hours after administration of Saline or Compound 14, and seventh blood collection—24 hours after administration of Saline or Compound 14. Likewise, when Compound 14 was administered to the mice 24 hours after administration of [^125I]ST03-Cupid, blood collection was carried out with the following time intervals: first blood collection—10 minutes after administration of [^125]ST03-Cupid, second blood collection—24 hours after administration of [^125I]ST03-Cupid, third blood collection—10 minutes after administration of Saline or Compound 14, fourth blood collection—1 hour after administration of Saline or Compound 14, fifth blood collection—3 hours after administration of Saline or Compound 14, sixth blood collection—6 hours after administration of Saline or Compound 14, and seventh blood collection—24 hours after administration of Saline or Compound 14. The collected blood (40 to 50 μL) was measured using a gamma counter. The counting rate (dmp) measured with the gamma counter was divided by the amount of blood collected (g) to calculate a counting rate (dpm/g of blood) per unit weight, and the results were shown in a graph. Likewise, the counting rate (dmp) measured with the gamma counter was divided by the counting rate of [^125I]ST03-Cupid before administration, so as to calculate the remaining percentage (% ID/g of blood) in the dose after the administration. The results were shown in a graph. The measurement results are shown in Tables 1 and 2 and FIGS. 1 and 2.

[2] = biological target: T1, Cupid (Streptomyces avidinii, UniProt P22629, E125D/E140N/N47D/N73G/R108K/R127K/S51D/S69N/Y107S/Y46S); assay: Affinity to Cupid, SPR kinetics analysis (Biacore T200, Single Cycle Kinetics, CEA-Cupid immobilized); format: binding
T1 construct: fused on or other part: Anti-CEACAM5 scFv antibody ST03 fused to Cupid as the molecular probe (ST03-Cupid = anti-CEA-Cupid = 'CEA-Cupid'); 6xHis tag at the C-terminus
T1 sequence (P22629 whole entry E125D/E140N/N47D/N73G/R108K/R127K/S51D/S69N/Y107S/Y46S, looked up, the tested form may be a part): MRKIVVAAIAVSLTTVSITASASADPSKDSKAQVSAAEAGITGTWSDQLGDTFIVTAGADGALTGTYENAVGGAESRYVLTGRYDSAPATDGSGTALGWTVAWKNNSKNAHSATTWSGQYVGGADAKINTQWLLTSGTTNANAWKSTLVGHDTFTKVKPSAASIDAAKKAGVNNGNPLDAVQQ
Experimental: (§1) In order to examine the affinity of Zephyr1 and Zephyr2 to Cupid, kinetics analysis was carried out using SPR (Biacore T200). Specifically, using Amin Coupling Kit (GE Healthcare), CEA-Cupid serving as a ligand was immobilized on Sensor Chip CM5 (GE Healthcare), targeting 5000RU. Thereafter, using 5 two-fold serial dilutions (from 10 nM) of Zephyr1 or Zephyr2 serving as an analyte, kinetics analysis was carried out according to a Single Cycle Kinetics method. Thereafter, using Biacore T200 Evaluation Software, version 2.0 (GE Healthcare), the obtained data were fitted at a Bivalent Analyte mode, and kinetic parameters were calculated. As a result, Zephyr1: ka=3.792E+4, kd=4.42E−6 (FIG. 3A); and Zephyr2: ka=1.578E+7, kd=0.09339 (FIG. 3B).

[3] = biological target: T2, Cupid (Streptomyces avidinii, UniProt P22629, Y46S/N47D/S51D/S69N/N73G/Y107S/R108K/E125D/R127K/E140N); assay: as above; format: binding; conditions: for ka / kd: Bivalent Analyte fit
T2 construct: fused on or other part: Anti-CEACAM5 scFv antibody ST03 fused to Cupid as the molecular probe (ST03-Cupid = anti-CEA-Cupid = 'CEA-Cupid'); 6xHis tag at the C-terminus
T2 sequence (P22629 whole entry Y46S/N47D/S51D/S69N/N73G/Y107S/R108K/E125D/R127K/E140N, looked up, the tested form may be a part): as the sequence (P22629 whole entry E125D/E140N/N47D/N73G/R108K/R127K/S51D/S69N/Y107S/Y46S, looked up, the tested form may be a part) above
Experimental: as §1

[4] = test system: CEA-Cupid; assay: Clearance of Cupid by Zephyr2 in vivo, xenograft mouse models, blood radioactivity of Psyche-B-DOTA(^111In); conditions: Zephyr2 20 hours after CEA-Cupid; Psyche-B-DOTA(111In) two hours later; blood collected 4 hours after labeling substance
Experimental: A 100 mM acetate buffer was added to ^111InCl3 solution 37 MBq (approx. […]) in the same volume as the ^111InCl3 solution, and the pH of the mixed solution was then adjusted to pH 4 to 5. Psyche-B-DOTA was added to the mixed solution at a molar ratio of 1000 times (10 nmol), such that the concentration of DMSO became 0.2% or more. The thus obtained mixture was heated at 80° C. for 15 minutes or more. Thereafter, the reaction mixture was analyzed according to HPLC, and the radiochemical purity was confirmed. The mixture was diluted with a 10 mM acetate buffer to a concentration of 1 nmol/mL, and the obtained solution was used as an administration solution.
Whether or not Cupid existing in the blood of a living body is cleared by Zephyr2 was examined by performing an experiment using xenograft mouse models. The experiment was carried out using three mice from a Zephyr2 administration group and three mice from a non-administration group (control group). Specifically, […] CEA-Cupid was administered to the xenograft mouse models, and 20 hours after the administration of CEA-Cupid, 100 μmol Zephyr2 was administered (the control group was untreated). […] Subsequently, 4 hours after the administration of the labeling substance, the blood was collected, and the amount of radioactivity therein was then measured using a gamma counter. […]

[5] = CA given 6 hr after [125I]ST03-Cupid, time 0.17 hr (before CA)
[6] = CA given 6 hr after [125I]ST03-Cupid, time 5.92 hr (before CA)
[7] = CA given 6 hr after [125I]ST03-Cupid, time 6.17 hr
[8] = CA given 6 hr after [125I]ST03-Cupid, time 7 hr
[9] = CA given 6 hr after [125I]ST03-Cupid, time 9 hr
[10] = CA given 6 hr after [125I]ST03-Cupid, time 24 hr
[11] = CA given 6 hr after [125I]ST03-Cupid, time 30 hr
[12] = CA given 24 hr after [125I]ST03-Cupid, time 0.17 hr (before CA)
[13] = CA given 24 hr after [125I]ST03-Cupid, time 23.92 hr (before CA)
[14] = CA given 24 hr after [125I]ST03-Cupid, time 24.17 hr
[15] = CA given 24 hr after [125I]ST03-Cupid, time 25 hr
[16] = CA given 24 hr after [125I]ST03-Cupid, time 27 hr
[17] = CA given 24 hr after [125I]ST03-Cupid, time 30 hr
[18] = CA given 24 hr after [125I]ST03-Cupid, time 48 hr

## CC(=O)NC1C(SCCC(=O)NCCOCCOCCNC(=O)CCC(CCC(=O)NCCOCCOCCNC(=O)CCSC2OC(CO)C(O)C(O)C2NC(C)=O)(CCC(=O)NCCOCCOCCNC(=O)CCSC2OC(CO)C(O)C(O)C2NC(C)=O)NC(=O)OCCOCCOCCn2cc(COCCNC(=O)c3cc(NC(=O)CCCCCNC(=O)CCCC[C@@H]4SC[C@@H]5NC(=N)N[C@@H]54)cc(NC(=O)CCCCCNC(=O)CCCC[C@@H]4SC[C@@H]5NC(=N)N[C@@H]54)c3)nn2)OC(CO)C(O)C1O (stereo partly drawn) [Compound 14]
[1]; [5]
  % Injected Dose/g of blood: 31.7 ± 3.6 % Injected Dose/g of blood
  Radioactivity concentration: 599504 ± 68046 dpm/g
[1]; [6]
  % Injected Dose/g of blood: 16.6 ± 2.2 % Injected Dose/g of blood
  Radioactivity concentration: 312854 ± 42382 dpm/g
[1]; [7]
  % Injected Dose/g of blood: 6.2 ± 1.8 % Injected Dose/g of blood
  Radioactivity concentration: 117840 ± 34798 dpm/g
[1]; [8]
  % Injected Dose/g of blood: 4.8 ± 1.6 % Injected Dose/g of blood
  Radioactivity concentration: 90787 ± 29628 dpm/g
[1]; [9]
  % Injected Dose/g of blood: 4.4 ± 1.6 % Injected Dose/g of blood
  Radioactivity concentration: 83236 ± 29606 dpm/g
[1]; [10]
  % Injected Dose/g of blood: 2.4 ± 0.8 % Injected Dose/g of blood
  Radioactivity concentration: 46178 ± 15340 dpm/g
[1]; [11]
  % Injected Dose/g of blood: 2.0 ± 0.7 % Injected Dose/g of blood
  Radioactivity concentration: 37023 ± 13443 dpm/g
[1]; [12]
  % Injected Dose/g of blood: 33.8 ± 2.5 % Injected Dose/g of blood
  Radioactivity concentration: 638296 ± 48098 dpm/g
[1]; [13]
  % Injected Dose/g of blood: 6.2 ± 0.9 % Injected Dose/g of blood
  Radioactivity concentration: 116201 ± 17325 dpm/g
[1]; [14]
  % Injected Dose/g of blood: 0.4 ± 0.1 % Injected Dose/g of blood
  Radioactivity concentration: 8368 ± 1872 dpm/g
[1]; [15]
  % Injected Dose/g of blood: 0.4 ± 0.1 % Injected Dose/g of blood
  Radioactivity concentration: 7381 ± 1798 dpm/g
[1]; [16]
  % Injected Dose/g of blood: 0.6 ± 0.1 % Injected Dose/g of blood
  Radioactivity concentration: 10748 ± 2533 dpm/g
[1]; [17]
  % Injected Dose/g of blood: 0.6 ± 0.2 % Injected Dose/g of blood
  Radioactivity concentration: 12088 ± 3191 dpm/g
[1]; [18]
  % Injected Dose/g of blood: 0.5 ± 0.1 % Injected Dose/g of blood
  Radioactivity concentration: 9001 ± 1942 dpm/g
[2]
  pKd: 9.93
[3]; SPR
  ka: 3.792E+4
  kd: 4.42E−6

## COC(=O)C(CCCCNC(=O)c1cc(NC(=O)NCCOCCOCCNC(=O)CCc2cn(CCOCCOCCOC(=O)NC(CCC(=O)NCCOCCOCCNC(=O)CCSC3OC(CO)C(O)C(O)C3NC(C)=O)(CCC(=O)NCCOCCOCCNC(=O)CCSC3OC(CO)C(O)C(O)C3NC(C)=O)CCC(=O)NCCOCCOCCNC(=O)CCSC3OC(CO)C(O)C(O)C3NC(C)=O)nn2)cc(C(=O)NCCCCC(NC(=O)CCCCC2SCC3NC(=N)NC32)C(=O)OC)c1)NC(=O)CCCCC1SCC2NC(=N)NC21 (stereo not drawn) [Compound 25]
[4]
  amount of radioactivity in blood: 4.51 % ID/g
[3]; SPR
  ka: 1.578E+7
  kd: 0.09339
[3]; SPR, printed as KD=ka/kd
  pKd: 8.23
[3]; ratio of KD values
  affinity to Cupid reduced in comparison to that of Zephyr1: approximately one fiftieth
